According to ChEMBL document CHEMBL1151176, “Isolation of nor-secofriedelanes from the sedative extracts of Galphimia glauca” (2004):

How the values were obtained:
Format in all cases: functional
Settings in all cases: read-out: ED50 (the source's name)
KB = experiment: Cytotoxicity against human KB cells
HCT-15 = experiment: Cytotoxicity against human HCT15 cells
OVCAR = experiment: Cytotoxicity against human OVCAR cells
[1] = Cytotoxicity against human SQC1 cells

Measured: EC50

COC(=O)[C@@]12CC[C@@]3(C)[C@@H]4C=CC(=O)OC[C@]4([C@@H](C)O)C[C@@H](O)[C@@H]3[C@@]1(C)CC[C@@]1(C)CC=C(C)C[C@]12O [GALPHIMINE B]
> 4 µg/mL: all assays above

COC(=O)[C@@]12CC[C@@]3(C)[C@@H]4C=CC(=O)OC[C@]4([C@@H](C)O)C[C@@H](O)[C@@H]3[C@@]1(C)CC[C@@]1(C)CCC(C)=C[C@]12O [GALPHIMINE C]
> 4 µg/mL: all assays above

C=C1CC[C@]2(C)CC[C@]3(C)[C@H]4[C@H](OC(C)=O)[C@H](O)[C@@]5([C@H](C)O)COC(=O)C=C[C@H]5[C@]4(C)CC[C@@]3(C(=O)OC)[C@]2(O)C1 [GALPHIMINE I]
> 4 µg/mL: all assays above

COC(=O)[C@@]12CC[C@@]3(C)[C@@H]4C=CC(=O)OC[C@]4([C@@H](C)O)[C@@H](O)[C@@H](O)[C@@H]3[C@@]1(C)CC[C@@]1(C)CC=C(C)C[C@]12O [GALPHIMINE A]
> 4 µg/mL: all assays above

C=C1CC[C@]2(C)CC[C@]3(C)[C@H]4[C@H](O)C[C@@]5([C@@H](C)O)COC(=O)C=C[C@H]5[C@]4(C)CC[C@@]3(C(=O)OC)[C@]2(O)C1 [GALPHIMINE F]
> 4 µg/mL: all assays above

COC(=O)[C@@]12CC[C@@]3(C)[C@@H]4C=CC(=O)OC[C@]4([C@H](C)O)[C@@H](O)[C@@H](OC(C)=O)[C@@H]3[C@@]1(C)CC[C@@]1(C)CC=C(C)C[C@]12O [GALPHIMINE D]
> 4 µg/mL: all assays above

C=C1CC[C@]2(C)CC[C@]3(C)[C@H]4[C@H](O)[C@H](O)[C@@]5([C@H](C)O)COC(=O)C=C[C@H]5[C@]4(C)CC[C@@]3(C(=O)OC)[C@]2(O)C1 [GALPHIMINE H]
> 4 µg/mL: all assays above

COC(=O)[C@@]12CC[C@@]3(C)[C@@H]4C=CC(=O)OC[C@]4([C@@H](C)O)[C@@H](OC(C)=O)[C@@H](O)[C@@H]3[C@@]1(C)CC[C@@]1(C)CC=C(C)C[C@]12O [GALPHIMINE E]
> 4 µg/mL: all assays above

C=C1CC[C@]2(C)CC[C@]3(C)[C@H]4[C@H](O)[C@H](OC(C)=O)[C@@]5([C@@H](C)O)COC(=O)C=C[C@H]5[C@]4(C)CC[C@@]3(C(=O)OC)[C@]2(O)C1 [GALPHIMINE G]
> 4 µg/mL: all assays above
